The record followed here is patent publication US20220280469A1, “PHARMACEUTICAL COMPOUND AND PREPARATION METHOD THEREFOR AND USE THEREOF” (priority 2019, published 2022).

Series [1] has as its system PANC-1 subcutaneous transplantation tumor. Kind of series: Anti-tumor effect in PANC-1 subcutaneous transplantation tumor model. The format is in vivo, BALB/c Nude mouse. Particulars: 4 mg/kg cisplatin (effective dose), once a week, 4 times. The protocol: The human pancreatic cancer cell strain PANC-1 was cultured in a DMEM high-glucose medium containing 10% FBS. Before being used, the cells were digested with pancreatin and centrifuged for 3 min at 800 r·min^−1 to remove the supernatant. The cells were resuspended in a serum-free DMEM medium, matrigel was added at a ratio of 1:1, and the number of the cells was adjusted to 5×10^6/mL. The cell suspension was inoculated subcutaneously to the right thigh at 100 μL/mouse. […] The tumor-bearing mice were randomly divided into 5 groups with 6 mice in each. […] The drugs were administered via tail vein injection. The administration was performed once a week, 4 times in total. The long (l) and short (r) diameters of the tumors were measured with a vernier caliper every other day to calculate tumor volume. All mice were sacrificed on day 11 after the administration cycle was completed, and they were dissected to get the tumors, which were then weighed. The tumor volume calculation formula was as follows: V=(l×r^2)/2.

Series [2] is described as follows: Pharmacokinetics and tumor targeting of Pt in tumor tissue of pancreatic cancer orthotopic transplantation model mice. The format is in vivo, mouse. Particulars: 8 mg/kg. The procedure: Mouse pancreatic cancer cells transfected with luciferase reporter genes were used to prepare mouse pancreatic cancer orthotopic transplantation models. The tumor volume of the mice were determined by injecting […] into tail veins, and the mice with similar tumor volume were selected for evaluation of systemic PK and tumor-targeting property. […] Pharmacokinetic parameters were calculated using PK Solver 2.0.

The subject of series [3] is MIA PaCa-2 pancreas orthotopic transplantation tumor. Kind of series: Kaplan-Meier survival in MIA PaCa-2 pancreas orthotopic transplantation model. The following applies: once every 7 days, three times.
Protocol: Pancreas of BALB/c nude mice was transplanted orthotopically with Mia paca-2 cells (reporter gene: luciferase) to prepare pancreatic cancer transplantation in situ models, and then the mice were randomly divided into 4 groups with 6 mice in each, and administered with drugs 10 days after the models were established. […] The drugs were administered once every 7 days, three times in total. The mice were weighed every other day, and the survival state of the mice was recorded. Kaplan-Meier survival curves were drawn to examine the influence of different drug treatments on the survival state of the mice.

For `N.N.[Cl][Pt][Cl]` [cisplatin, cis-diamminedichloroplatinum], in series [1], the “body weight of the mice during the administration process” value is given as “remarkably decreased”. Besides, in series [1] (tail vein), the “inhibition of PANC-1 subcutaneous transplantation tumor (tumor volume, tumor weight)” value is on record as “no significant inhibition effect”. In series [2], the “ID% (drug amount at a tumor site x 100%/injected drug amount)” value is “less than 5%”. Also, in series [3], the “body weight of the mice in the whole treatment process” value was “significantly reduced”.
